Data as given in PubChem BioAssay (NCI).
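Where inhibition never reached the appropriate level, the endpoint shown equals the highest concentration tested. Otherwise, values were interpolated linearly from a five-concentration, 48-hour dose response in 96-well plates. GI50 = concentration required for 50% inhibition of growth. TGI: total growth inhibition.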

Columns and labels:
Assay in all cases: growth of human tumour cells (NCI), 48 h
[1] = system: NCI/ADR-RES ovarian
[2] = system: LOX IMVI melanoma
[3] = system: UO-31 renal
[4] = system: SK-MEL-28 melanoma
[5] = system: NCI-H460 lung
[6] = system: K-562 leukemia
[7] = system: HT29 colon
[8] = system: OVCAR-5 ovarian

Row | Structure (SMILES) | GI50 [1] [µM] | TGI [1] [µM] | GI50 [2] [µM] | TGI [2] [µM] | GI50 [3] [µM] | TGI [3] [µM] | GI50 [4] [µM] | TGI [4] [µM] | GI50 [5] [µM] | TGI [5] [µM] | GI50 [6] [µM] | TGI [6] [µM] | GI50 [7] [µM] | TGI [7] [µM] | GI50 [8] [µM] | TGI [8] [µM]
1 | C[n+]1cc2cc3c(cc2c2ccccc21)OCO3 | > 100 | > 100 | 9.11 | 53.8 | 27.8 | > 100 | 3.49 | 14.3 | 2.98 | 14.5 | 7.24 | > 100 | 3.77 | 23 | 16.5 | > 100
2 | Cc1cccc2c(N=Nc3ccccc3[N+](=O)[O-])c(O)[nH]c12 |  | > 31.4 |  | 27.1 |  | 22.5 |  | > 100 |  | 30.6 |  | > 100 |  | > 52.7 |  | > 69.2
3 | N=C1N=C(N)S/C1=C\c1ccc2ncccc2c1 | > 25 | > 25 | > 25 | > 25 | > 25 | > 25 | > 25 | > 25 | > 25 | > 25 | > 25 | > 25 | > 25 | > 25 | > 25 | > 25
4 | CC(=O)[O][Hg][CH2]C1(C)COC(C)([CH2][Hg][O]C(C)=O)CO1 (centres undefined) | 19.1 | 46 | 1.21 | 2.67 | 5.07 | 9.83 | 1.64 | 3.06 | 15.7 | 40.4 | 0.607 | 2.71 | 6.67 | > 59.2 | > 49.2 | > 63.8
5 | O=C(Nc1nc(-c2ccccc2)cs1)c1cc(O)c(O)c(O)c1 | 3.7 | > 100 | 3.62 | 32.1 | 0.605 | 19.4 | 7.18 | 60.8 | 3.43 | 17 | 2.72 | > 100 | 5.95 | 44.1 | 18.2 | 47.7
6 | NC(=S)N/N=C/c1ccc(OC(=O)COc2ccccc2)cn1 | 4.14 | > 100 | 3.48 | > 100 | 3.91 | 39.2 | 44.4 | > 100 | 5.04 | 63.4 | 2.88 | > 100 | 39 | > 100 | 49.7 | > 100
7 | COc1ccc(Nc2ncc(-c3ccccc3)o2)cc1OC | > 22 | > 25 | 11.6 | > 25 | 9.29 | > 25 | > 25 | > 25 | 13.4 | > 25 | 8.3 | > 25 | 16.3 | > 25 | > 25 | > 25
